Legend:
[1] = target: T1, human β3 adrenergic receptor (Homo sapiens, UniProt P13945); assay: cAMP accumulation (SPA) in CHO cells transfected with human β3 adrenergic receptor; type: cell-based; details: for EC50 / beta-3 IA (maximal response relative to isoproterenol at 10^-5 M): CHO cells, cAMP; for EC50: 30 min incubation, read-out: beta-3 EC50; for beta-3 IA (maximal response relative to isoproterenol at 10^-5 M): fraction of maximal isoproterenol response
T1 construct: Full length β3 AR clones (402 amino acids) containing the last 6 amino acids of hβ3_AR are prepared; expressed in transfected cells; host or cells: CHO cells
T1 sequence (P13945 whole entry): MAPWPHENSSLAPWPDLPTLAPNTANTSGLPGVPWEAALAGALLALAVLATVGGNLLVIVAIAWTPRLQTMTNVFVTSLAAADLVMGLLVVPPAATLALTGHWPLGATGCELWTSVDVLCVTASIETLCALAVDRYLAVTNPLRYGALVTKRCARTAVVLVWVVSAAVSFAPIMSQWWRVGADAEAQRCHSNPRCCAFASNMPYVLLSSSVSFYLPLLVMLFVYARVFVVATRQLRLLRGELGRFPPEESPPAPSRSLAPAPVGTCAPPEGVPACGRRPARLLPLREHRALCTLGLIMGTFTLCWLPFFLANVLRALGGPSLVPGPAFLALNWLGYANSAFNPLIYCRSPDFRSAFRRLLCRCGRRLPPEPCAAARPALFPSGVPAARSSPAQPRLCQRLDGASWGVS
Method: (§1) The ability of compounds of this invention to treat or inhibit disorders related to insulin resistance or hyperglycemia was established with representative compounds of this invention in the following standard pharmacological test procedures, which measured the binding selectivity to the β1, β2, and β3 adrenergic receptors. Binding to the receptors was measured in Chinese Hamster ovary (CHO) cells that were transfected with adrenergic receptors. The following briefly summarizes the procedures used and results obtained.
Cloning of Human β3-AR Genomic DNA: cDNA was constructed by ligating four polymerase chain reaction (PCR) products using the following primers: an ATG-NarI fragment, sense primer 5′-[…]3′ and anti-sense primer 5′[…]3′; a NarI-AccI fragment, 5′[…]3′ as sense and 5′[…]3′ as anti-sense primer; an Accli-Styl fragment, sense primer 5′[…]3′ and anti-sense primer 5′[…]3′ and a Styl-TAG fragment, with sense primer 5′[…]3′ and anti-sense primer 5′[…]3′. The corresponding primer sequences are described in Mantzoros, C. S., et.al., Diabetes 45: 909-914 (1996). The four fragments are ligated into a pUC 18 plasmid (Gibco-BRL) and sequenced. Full length β3 AR clones (402 amino acids) containing the last 6 amino acids of hβ3_AR are prepared with the β3-βARpcDNA3 from ATTC.
(§2) Binding Procedure: Clones expressing receptor levels of 70 to 110 fmoles/mg protein were used in the test procedures. CHO cells were grown in 24-well tissue culture plates in Dulbecco's Modified Eagle Media with 10% fetal bovine serum, MEM non-essential amino acids, Penicillin-Streptompycin and Geneticin. On the day of test procedure, growth medium was replaced with preincubation media (Dulbecco's Modified Eagle Media and incubated for 30 minutes at 37° C. Preincubation medium was replaced with 0.2 ml treatment medium containing DMEM media containing 250 μM IBMX (isobutyl-1-methylxantine) plus 1 mM ascorbic acid with test compound dissolved in DMSO. Test compounds were tested over a concentration range of 10^−9 M to 10^−5 M for β3 cells and 10^−8 to 10^−4 M for β1 and β2 transfected cells. Isoproterenol (10^−5 M) was used as an internal standard for comparison of activity. Cells were incubated at 37° C. on a rocker for 30 min with the β3 cells and 15 min for […]. Incubation was stopped with the addition of 0.2N HCl and neutralized with 2.5N NaOH. The plates, containing the cells and neutralized media, were stored at −20 degrees celsius until ready to test for cAMP using the SPA test kit (Amersham).
(§3) Data Analysis and Results: Data collected from the SPA test procedure were analyzed as per cent of the maximal isoproterenol response at 10^−5 M. Activity curves were plotted using the SAS statistical and graphics software. EC50 values were generated for each compound and the maximal response (IA) developed for each compound is compared to the maximal response of isoproternol at 10^−5 M from the following formula: [formula]

[2] = target: T2, human β1-adrenergic receptor (Homo sapiens, UniProt P08588); assay: cAMP accumulation (SPA) in CHO cells transfected with human β1 adrenergic receptor; type: cell-based; details: for beta-1 IA (maximal response relative to isoproterenol at 10^-5 M): fraction of maximal isoproterenol response
T2 construct: expressed in transfected cells; host or cells: CHO cells
T2 sequence (P08588 whole entry): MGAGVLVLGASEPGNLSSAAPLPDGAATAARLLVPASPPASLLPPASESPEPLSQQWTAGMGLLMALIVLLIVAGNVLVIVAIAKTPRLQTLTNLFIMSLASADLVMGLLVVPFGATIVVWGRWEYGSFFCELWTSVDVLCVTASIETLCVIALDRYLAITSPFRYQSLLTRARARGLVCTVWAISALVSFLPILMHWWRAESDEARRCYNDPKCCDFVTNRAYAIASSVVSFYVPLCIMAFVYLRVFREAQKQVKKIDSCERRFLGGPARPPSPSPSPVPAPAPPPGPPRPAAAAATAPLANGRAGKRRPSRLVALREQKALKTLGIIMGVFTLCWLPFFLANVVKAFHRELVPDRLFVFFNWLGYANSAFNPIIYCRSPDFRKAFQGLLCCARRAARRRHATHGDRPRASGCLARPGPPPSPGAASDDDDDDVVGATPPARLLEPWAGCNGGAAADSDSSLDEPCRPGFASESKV
Method: as §1
(§4) Transfection of CHO cells with β1 and β2 adrenergic receptors: CHO cells were transfected with human β1- or β2-adrenergic receptors as described in Tate, K. M., Eur. J. Biochem., 196:357-361 (1991).
as §2, §3

[3] = target: T3, human β2-adrenergic receptor (Homo sapiens, UniProt P07550); assay: cAMP accumulation (SPA) in CHO cells transfected with human β2 adrenergic receptor; type: cell-based; details: for beta-2 IA (maximal response relative to isoproterenol at 10^-5 M): fraction of maximal isoproterenol response
T3 construct: expressed in transfected cells; host or cells: CHO cells
T3 sequence (P07550 whole entry): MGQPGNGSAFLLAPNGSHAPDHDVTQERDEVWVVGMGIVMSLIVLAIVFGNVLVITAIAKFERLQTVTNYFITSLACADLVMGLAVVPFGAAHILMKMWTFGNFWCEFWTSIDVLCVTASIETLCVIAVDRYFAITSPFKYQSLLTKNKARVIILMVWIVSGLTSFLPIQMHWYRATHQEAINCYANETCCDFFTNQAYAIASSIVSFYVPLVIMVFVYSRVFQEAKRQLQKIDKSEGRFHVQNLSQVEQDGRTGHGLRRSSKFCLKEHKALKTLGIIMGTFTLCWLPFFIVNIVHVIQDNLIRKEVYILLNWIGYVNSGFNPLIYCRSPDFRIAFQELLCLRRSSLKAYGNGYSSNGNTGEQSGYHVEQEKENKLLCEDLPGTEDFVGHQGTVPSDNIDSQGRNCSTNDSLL
Method: as §1, §4, §2, §3

EC50 [1] [nM]	beta-3 IA (maximal response relative to isoproterenol at 10^-5 M) [1]	beta-1 IA (maximal response relative to isoproterenol at 10^-5 M) [2]	beta-2 IA (maximal response relative to isoproterenol at 10^-5 M) [3]	SMILES	melting point [°C]	beta-3 activity at single concentration ([1]; at 10 μM, per cent of maximal isoproterenol response) [% at 10 μM]	EC50 ([2]; read-out: beta-1 EC50) [nM]	EC50 ([3]; read-out: beta-2 EC50) [nM]
–	–	–	–	CCCCOc1ccc(S(=O)(=O)N2CC(NCC(O)COc3cccc4[nH]c5ccccc5c34)C2)cc1 (stereo not shown) [Example 3, 1-[1-(4-Butoxy-benzenesulfonyl)-azetidin-3-ylamino]-3-(9H-carbazol-4-yloxy)-propan-2-ol]	81 to 84	–	–	–
–	–	–	–	CCCCOc1ccc(S(=O)(=O)N2CCC(NCC(O)c3ccc(O)c(NS(C)(=O)=O)c3)C2)cc1 (stereo not shown) [Example 6, N-(5-{2-[1-(4-Butoxy-benzenesulfonyl)-pyrrolidin-3-ylamino]-1-hydroxy-ethyl}-2-hydroxy-phenyl)-methanesulfonamide]	95 to 98	–	–	–
80	0.87	(0.3)	(0.01)	COc1ccc(S(=O)(=O)N2CCC(NC[C@H](O)COc3cccc4[nH]c(=O)[nH]c34)CC2)cc1OC [Example 20, 4-{(2S)-3-[1-(3,4-Dimethoxy-benzenesulfonyl)-piperidin-4-ylamino]-2-hydroxy-propoxy}-1,3-dihydro-benzoimidazol-2-one]	–	–	–	–
60	0.88	(0.1)	(0.03)	COc1ccc(S(=O)(=O)N2CCC(NC[C@H](O)COc3cccc4[nH]c5ccccc5c34)CC2)cc1 [Example 15, (2S)-1-(9H-Carbazol-4-yloxy)-3-[1-(4-methoxy-benzenesulfonyl)-piperidin-4-ylamino]-propan-2-ol]	–	–	–	–
100	0.88	–	–	CS(=O)(=O)Nc1cc(C(O)CNC2CCN(S(=O)(=O)c3ccc4oc5ccccc5c4c3)CC2)ccc1O (stereo not shown) [Example 23, N-(5-(2-[1-(Dibenzofuran-2-sulfonyl)-piperidin-4-ylamino]-1-hydroxy-ethyl}-2-hydroxy-phenyl)-methanesulfonamide]	–	–	–	–
20	1.2	(0.1)	(0.02)	COc1ccc(S(=O)(=O)N2CCC(NC[C@H](O)COc3cccc4[nH]c5ccccc5c34)CC2)cc1OC [Example 21, (2S)-1-(9H-Carbazol-4-yloxy)-3-[1-(3,4-dimethoxy-benzenesulfonyl)-piperidin-4-ylamino]-propan-2-ol]	–	–	–	–
–	–	–	–	CCCCOc1ccc(S(=O)(=O)N2CC(NCC(O)c3ccc(O)c(NS(C)(=O)=O)c3)C2)cc1 (stereo not shown) [Example 5, N-(5-{2-[1-(4-Butoxy-benzenesulfonyl)-azetidin-3-ylamino]-1-hydroxy-ethyl)-2-hydroxy-phenyl)-methanesulfonamide]	67 to 70	78	–	–
800	0.75	–	–	O=c1[nH]c2cccc(OC[C@@H](O)CNC3CCN(S(=O)(=O)c4cccc5nsnc45)CC3)c2[nH]1 [Example 8, 4-{(2S)-3-[1-(Benzo[1,2,5]thiadiazole-4-sulfonyl)-piperidin-4-ylamino]-2-hydroxy-propoxy}-1,3-dihydro-benzoimidazol-2-one]	–	–	–	–
–	–	–	–	CCCCOc1ccc(S(=O)(=O)N2CCC(NC[C@H](O)COc3cccc4[nH]c5ccccc5c34)C2)cc1 (stereo partly drawn) [Example 7, (2S)-1-[1-(4-Butoxy-benzenesulfonyl)-pyrrolidin-3-ylamino]-3-(9H-carbazol-4-yloxy)-propan-2-ol]	118 to 119	–	–	–

SMILES	EC50 [1] [nM]	beta-3 IA (maximal response relative to isoproterenol at 10^-5 M) [1]	beta-1 IA (maximal response relative to isoproterenol at 10^-5 M) [2]	beta-2 IA (maximal response relative to isoproterenol at 10^-5 M) [3]	melting point [°C]	beta-3 activity at single concentration ([1]; at 10 μM, per cent of maximal isoproterenol response) [% at 10 μM]	EC50 ([2]; read-out: beta-1 EC50) [nM]	EC50 ([3]; read-out: beta-2 EC50) [nM]
CCCCOc1ccc(S(=O)(=O)N2CCC(NC[C@H](O)COc3cccc4[nH]c(=O)[nH]c34)CC2)cc1 [Example 9, 4-((2S)-3-[1-(4-Butoxy-benzenesulfonyl)-piperidin-4-ylamino]-2-hydroxy-propoxy}-1,3-dihydro-benzoimidazol-2-one]	500	0.8	–	–	–	–	–	–
CCCCOc1ccc(S(=O)(=O)N2CCC(NC[C@H](O)COc3cccc4[nH]c5ccccc5c34)CC2)cc1 [Example 14, (2S)-1-[1-(4-Butoxy-benzenesulfonyl)-piperidin-4-ylamino]-3-(9H-carbazol-4-yloxy)-propan-2-ol]	850	0.74	(0.04)	(0.07)	–	–	–	–
CCCCOc1ccc(S(=O)(=O)N2CC(NC[C@H](O)COc3ccc(O)cc3)C2)cc1 [Example 1, 4-{(2S)-3-[1-(4-Butoxy-benzenesulfonyl)-azetidin-3-ylamino]-2-hydroxy-propoxy}-phenol]	30	0.82	0.49	0.39	55 to 58	–	1600	900
